Source: patent US20220339134A1, “VERY-LONG-CHAIN POLYUNSATURATED FATTY ACIDS, ELOVANOID HYDROXYLATED DERIVATIVES, AND METHODS OF USE” (Board of Supervisors of Louisiana State University and …, priority 2019, published 2022)

What was measured:
[1] = system: hypothalamic neurons; assay: Microelectrode array (MEA) recording of organotypic hypothalamic slices; type: cell-based, Leprdb (db/db diabetic) mice; details: 500 nM; db/db male and female mice
Procedure: We determined whether ex vivo organotypic culture of hypothalamic slices (200 μm in thickness) obtained from brains of C57BL/6J (WT) mice and age matched Leprdb (db/db diabetic) mice were electrically active and capable of firing trains of action potentials using Maestro microelectrode arrays (MEA) performed with MaestroPro MEA system from Axion Biosystems, GA.
MEA measurements were carried out using a 48-well Microelectrode array (MEA) plate (M768-tMEA-48W) from Axion Biosystems, GA. Each well of the MEA plate, contained a 4×4 grid of […] circular nanoporous PEDOT electrodes embedded in the cell culture substrate, with a pole-to-pole electrode spacing of […]. In preparation for seeding hypothalamic slices, the wells were treated with 0.1% polyethylenimine (PEI) in sodium borate buffer, pH 8.4. Wells were then pre-coated in laminin (6 μg/mL) and the hypothalamic slices (200 μm in thickness) were plated on the electrode grid. […]
Extracellular recordings of spontaneous action potentials were performed in culture medium at 37° C. using the standard neural setting of the MaestroPro MEA system and AxIS software version 1.5.1.12. […] Recorded spike number per electrode were averaged after disregarding noisy electrodes from analysis. […]
Using the MEA system, population level electrical activity was recorded from different hypothalamic neurons. […]

[2] = system: RPE single-cells; assay: UOS-induced transcriptome changes in RPE single-cells; type: cell-based
Text: Dots in box plots represent expression of the gene for a single RPEC (total of 96 per sample). P<0.001 (***), P<0.01 (**), One-way Anova, with Post-Hoc Tukey HSD test for multiple comparisons.

[3] = system: RPE and PRC; assay: Subretinal injection of OAβ in WT mice +/- ELVs (RPE flat mount, OCT, qPCR, Western blot); type: in vivo; details: for OAβ-activated senescence program (p16INK4a, MMP1, p53, p21, p27, Il-6, SASP secretome) followed by RPE and PRC demise: summary of mouse and human RPE data
Text: (A) In vivo experimental design: 6-month-old C57BL/6J WT mice were divided into 7 groups (n=12/group): non-injected, PBS, OAβ only, OAβ+ELV-N-32, OAβ+ELV-N-34, ELV-N-32 only and ELV-N-34 only. On day 3, mRNA were isolated for Real-Time PCR. On day 7, mice were subjected to OCT and then eyes enucleated and processed for whole mount RPE staining and Western blots. (B) Whole flat mount of RPE with tight junction marker, Zonula occludens-1 (ZO-1) antibody. OAβ disrupted RPE morphology. (C) OAβ effects on retina and RPE by OCT. (D) Thickness of PRC layer was thinner in OAβ injected group. (E) RPE gene expression after Oaβ (1-42) injection and treatment with ELVs. (E-G) Gene expression in the same functional group were plotted. Senescence- and AMD-related genes (E), and collagenases, gelatinase, stromelysins and others matrix metalloproteinases (MMP) (F) and autophagy (G). (H) p16INK4a, a key marker for senescence, western blots of RPE. (I) Retina apoptosis gene expression after OAβ (1-42) injection and treatment with ELVs. (*P<0.05, student t-test).
ELVs restore RPE morphology and reduce gene expression after subretinal injection of OAβ in WT mice. (A) Mice were divided into 7 groups: non-injected, PBS, OAβ only, OAβ+ELV-N-32, OAβ+ELV-N-34, ELV-N-32 only and ELV-N-34 only. On day 3, mRNA were isolated for RT-PCR. On day 7, mice were subjected to OCT and then eyes were enucleated and processed to whole mount RPE staining and Western blot. (B) Whole flat mount of RPE. OAβ disrupted RPE morphology. However, RPE were less damage in the ELVs treatment group as well as PBS, ELVs alone did non induce changes. (C) Evaluation the OAβ effects on retina and RPE by OCT. (D) The thickness of PRC was thin in the OAβ injected group. OAβ cause the cell death of PRC, as the thinner in OCT measurement. (E) RPE gene expression after OAβ (1-42) injection and treatment with ELVs. 3 days after injection, the RNAs from RPE were isolated, reverse transcribed into cDNA and subjected to RT-PCR with different primers. Genes in the same functional group were plotted in the same chart, including senescence- and AMD-related genes (E), and collagenases, gelatinase, stromelysins and others matrix metalloproteinases (MMP) (F) and autophagy (G). (H) p16INK4a western blots of RPE/Choroid. […] (I) Retina gene expression after OAβ (1-42) injection and treatment with ELVs. OAβ activates apoptosis genes in the retina. […] (*P<0.05, using student t-test comparison).
All animal experiments were performed according to ARVO Statement for the Use of Animals in Ophthalmic and Vision Research, and the protocol was approved by LSU Health New Orleans' Institutional Animal Care and Use Committee (IACUC). 6-month-old 5×FAD mice (stock number: 34848-JAX, The Jackson Laboratory, Bar Harbor, Me., USA), co-overexpress FAD mutant forms of human amyloid precursor protein (the Swedish mutation: K670N, M671L; the Florida mutation: I716V; and the London mutation: V7171) and presenilin 1 (PS1, encoded by Psen1: M146L, L286V) transgenes under transcriptional control of the neuron-specific mouse Thy1 promoter. 5×FAD mice were hemizygotes with respect to the transgenes and non-transgenic WT littermates. Genotyping was performed by PCR of tail DNA. All analyses were carried out blind with respect to the mice genotype. For the subretinal injection, 6-month-old C57BL/6J mice were anesthetized by an intraperitoneal injection of ketamine/xylazine, pupils dilated with 1.0% tropicamide (Akorn, Ill., USA); and 0.5% Proparacaine Hydrochloride (Akorn) was applied for topical anesthesia. Eyes were punctured with a 30-gauge needle between the corneoscleral junction and the ora serrata into the vitreous cavity without disturbing the lens. Compounds were delivered to the subretinal region using a 33-gauge blunt needle attached to a 5p.1 Hamilton syringe (Hamilton Company, Reno, Nev., USA) under a dissecting microscope. Non-injected mice were used as negative control while the PBS injected mice were used for sham. […]

[4] = methyl ester or sodium salt; administered 1 hour following 2 hours of ischemia; cited from earlier work
[5] = system: human RPE cells; assay: Oxidative-stress and Erastin induced cell death in human RPE cells; type: cell-based
[6] = system: primary human RPE cells; assay: Primary human RPE cells treated with 10 μM OAβ +/- ELVs (SA-β-Gal staining, qPCR); type: cell-based; details: 3 days qPCR, 7 days staining
Procedure: (A) In vitro experimental design: Primary human RPE cells were treated with 10 μM OAβ+/−ELVs. After 3 days, RNA was isolated and qPCR analyzed. After 7 days, cells were subjected to β-Galactosidase staining. (B) Live cell images under bright field microscopy after 7 days. (C) β-Gal staining+/−ELVs. Quantitation of % for the β-Gal positive cells. ELVs decreased positive senescent cells. (D) Gene transcription of senescence, AMD-related and autophagy genes after OAβ (1-42) exposure+/−ELVs. (*P <0.05, student t-test).
OAβ toxicity is counteracted by ELVs in primary hRPE. (A) Primary hRPE cells were treated with 10 μM OAβ with or without adding ELVs. After 3 days, the total RNA was isolated and q-PCR analyzed. After 7 days, cells were subjected to β-Galactosidase staining. (B) Live cell images of primary hRPE under bright field microscope imaging after 7 days. (C) β-Galactosidase staining of primary hRPE, +/−ELVs. Quantitation of % for the β-Gal positive cells. ELVs decreased positive senescent cells. […]
Cells were visualized using SA-β-Gal staining kit (Cat 9860, Cell Signaling Technology, MA, USA). […] Pictures were taken under brightfield microscope (Nikon Eclipse TS100) 200× magnification after the development of blue color, and cells counted in 10 different random fields per well. […]

[7] = co-injected with OAβ subretinally, then topical ELV, day 7

With `CC/C=C\C[C@H](O)\C=C/C=C/C=C/[C@H](O)C/C=C\C/C=C\CCCCCCCCCCCCCCC(=O)[O-].[Na+]` [ELV-34-6 Na, sodium (16Z,19Z,22R,23E,25E,27Z,29S,31Z)-22,29-dihydroxytetratriaconta-16,19,23,25,27,31-hexaenoate] the “spiking activity of hypothalamic slices (MEA)” value [1] was “synchronous spiking is restored”.
For `CC/C=C\C[C@H](O)\C=C/C=C/C=C/[C@H](O)C/C=C\C/C=C\CCCCCCCCCCCCC(=O)O` [ELV-N-32], the “UOS-induced up-regulation of pro-inflammatory transcriptome and down-regulation of pro-homeostatic pathways” value [2] was “suppress these changes”, the “PRC degeneration / ONL after ELV injected alone” value ([3]; ELV alone, no OAβ, subretinal) was “did not yield PRC degeneration” and the “PRC protection (PRC layer, OCT)” value [3, 7] was “protection of PRC”. The “RPE morphology (ZO-1 whole flat mount)” value [3, 7] was “restoration of RPE morphology”, the “p16INK4a protein (western blot of RPE/Choroid)” value ([3]; elevated by OAβ injection, day 7) was “down regulated” and the “OAβ-activated senescence program (p16INK4a, MMP1, p53, p21, p27, Il-6, SASP secretome) followed by RPE and PRC demise” value (shortened to “OAβ-activated senescence program”) [3] was “blunt these events and elicit protection to both cells”. The “OAβ-activated senescence program” value ([3]; listed as ELV 32) was “downregulatory mediators of OAβ-evoked senescence”, the “OAβ-activated senescence program” value ([3]; listed as elovanoid 32) was “blunt these events and elicits protection” and the cell survival [4] was “promoted cell survival”. The infarct volumes [4] was “reduced infarct volumes”, the neurovascular unit disruption [4] was “diminished neurovascular unit disruption” and the “oxidative-stress and Erastin induced cell deaths” value [5] was “counteracted”. The “OAβ effects: RPE cell morphology, SASP (SA-β-Gal), senescence, AMD, MMP and autophagy gene expression” value [6] was “reverted these effects”.
In the case of `CC/C=C\C[C@H](O)\C=C/C=C/C=C/[C@H](O)C/C=C\C/C=C\CCC(=O)O` [NPD1, 10R,17S-dihydroxy-docosa-4Z,7Z,11E,13E,15Z,19Z-hexaenoic acid, reference compound], the “UOS-induced up-regulation of pro-inflammatory transcriptome and down-regulation of pro-homeostatic pathways” value [2] is reported as “suppress these changes” and the “oxidative-stress and Erastin induced cell deaths” value [5] is reported as “counteracted”.
In the case of “OAβ: oligomerized Aβ (1-42) peptide, used as cytotoxic stressor [reference compound]”, the “PRC layer thickness (OCT)” value ([3]; OAβ-injected retina, non-injected retina 105 μm) is reported as 35 μm.
